{"source": "paper PMC5394417", "about": "“Investigating the molecular mechanism of positive and negative allosteric modulators in the calcium-sensing receptor dimer” (Scientific Reports, 2017)", "target": "T1, HA-F684A CaSR mutant (Rattus norvegicus, UniProt P48442, F684A)", "T1 construct": "mGluR5 signal peptide (N); expressed in transfected cells; host or cells: HEK293T", "T1 sequence (P48442 20-1079 F684A)": "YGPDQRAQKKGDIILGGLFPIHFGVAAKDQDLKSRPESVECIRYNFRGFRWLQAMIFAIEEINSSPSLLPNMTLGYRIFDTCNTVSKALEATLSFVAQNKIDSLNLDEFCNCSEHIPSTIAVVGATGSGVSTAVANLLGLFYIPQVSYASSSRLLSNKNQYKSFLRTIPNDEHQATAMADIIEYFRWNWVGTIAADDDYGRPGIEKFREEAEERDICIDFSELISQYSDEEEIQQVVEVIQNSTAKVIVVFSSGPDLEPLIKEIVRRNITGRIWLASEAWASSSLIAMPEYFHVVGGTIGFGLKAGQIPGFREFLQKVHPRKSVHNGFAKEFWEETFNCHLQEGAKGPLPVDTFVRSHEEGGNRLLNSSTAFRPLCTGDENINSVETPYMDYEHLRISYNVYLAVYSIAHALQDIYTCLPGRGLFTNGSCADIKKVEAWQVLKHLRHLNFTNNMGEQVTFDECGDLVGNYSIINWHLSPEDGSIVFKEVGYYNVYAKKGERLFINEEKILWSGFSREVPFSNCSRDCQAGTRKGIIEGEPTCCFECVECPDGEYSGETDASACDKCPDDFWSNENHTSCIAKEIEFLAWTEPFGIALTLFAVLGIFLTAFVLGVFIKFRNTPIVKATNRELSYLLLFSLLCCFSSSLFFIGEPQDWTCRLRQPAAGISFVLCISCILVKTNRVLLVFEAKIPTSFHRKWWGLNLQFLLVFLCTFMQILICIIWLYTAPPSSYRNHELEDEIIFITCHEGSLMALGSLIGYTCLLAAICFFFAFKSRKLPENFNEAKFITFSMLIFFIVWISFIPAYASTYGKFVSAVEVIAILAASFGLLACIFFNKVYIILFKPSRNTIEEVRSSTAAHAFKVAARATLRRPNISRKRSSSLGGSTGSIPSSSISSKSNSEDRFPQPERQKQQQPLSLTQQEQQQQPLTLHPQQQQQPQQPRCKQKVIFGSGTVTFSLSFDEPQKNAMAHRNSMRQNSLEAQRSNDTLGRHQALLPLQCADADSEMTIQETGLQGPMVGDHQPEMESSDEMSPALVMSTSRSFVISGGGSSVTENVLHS", "assay": "IP-One assay, HEK293T transiently transfected", "format": "cell-based", "method": "Human embryonic kidney (HEK) 293T cells were cultured in DMEM supplemented with 10% dFBS and 1% P/S at 37 °C and 5% CO2. 48 h prior to assay, transient transfection was performed using Lipofectamine 2000 as the transfection reagent. White opaque 96-well culture plates (PerkinElmer, Waltham, MA, USA) were used for the ELISA and the TR-FRET dimerization assay, while clear tissue culture treated 96-well plates (Corning, Corning, NY, USA) were used for the IP-One assay. Both plate types were coated with poly-D-lysine before addition of cells and transfection mix. 0.25 μl/well of Lipofectamine 2000 were diluted in 25 μl/well of Opti-MEM and incubated at room temperature (RT) for 5 min. 0.03 μg/well of DNA was diluted in 25 μl/well of Opti-MEM, and subsequently mixed with the Lipofectamine 2000 dilution and incubated 20 min at RT before addition to the plates. Cell suspensions of 170.000 HEK293T cells/mL were prepared in complete growth medium and 100 μl/well (17.000 cells/well) was added to the plates, which were incubated for 48 h at 37 °C and 5% CO2 before performing assays.\nFunctional activity was measured using the IP-One assay, which is an IP1 accumulation assay. For agonist testing, ligands were prepared in final concentrations in ligand buffer (HBSS, 20 mM HEPES, pH 7.4 supplemented with 20 mM LiCl). Cells were washed once with 100 μl/well of assay buffer (HBSS, 20 mM HEPES, pH 7.4) and 50 μl/well of agonist solution was added after which plates were incubated at 37 °C for 30 min. Subsequently, ligand solutions were removed and cells were washed with 100 μl/well of assay buffer. Cell lysis was performed by addition of 30 μl/well of IP-One Conjugate & Lysis Buffer (Cisbio Bioassays, Codolet, France) and plates were incubated at RT for 30 min. Afterwards, 30 μl/well of assay buffer was added to dilute the cell lysate. 10 μl/well of cell lysate was transferred from the 96-well plate to a 384-well Optiplate and 10 μl/well of detection solution (Assay buffer + 2.5% of anti-IP1 antibody cryptate Terbium conjugate + 2.5% IP1-d2 conjugate (Cisbio Bioassays, Codolet, France)) was also added. The 384-well plate was incubated for 1 h at RT in dark before being measured on an EnVision plate reader (PerkinElmer, Waltham, MA, USA). Upon excitation at 340 nm, emission at 615 nm and 665 nm was measured, and the FRET ratio (665 nm/615 nm) was converted to IP1 concentrations by interpolating values from an IP1 standard curve generated from a provided IP1 calibrator (Cisbio Bioassays, Codolet, France). When testing allosteric modulators, cells were pre-incubated for 30 min at 37 °C with 50 μl/well of ligand buffer supplemented with allosteric modulator and a final concentration of 1% DMSO. Afterwards, the buffer solution was removed and 50 μl/well of agonist solution in ligand buffer supplemented with allosteric modulator and a final concentration of 1% DMSO was added. Plates were incubated for 30 min at 37 °C followed by one wash in 100 μl/well of assay buffer. Cell lysis and detection was performed as described above."}
{"compound": "[Ca+2]", "note": "[Ca^2+]", "values": [{"measurement": "EC50", "setting": "Ca^2+ alone", "value": 6.6, "unit": "mM"}, {"measurement": "pEC50 ± S.E.M.", "setting": "Ca^2+ alone", "value": "2.18 ± 0.01"}, {"measurement": "Max ± S.E.M.", "setting": "Ca^2+ alone, normalized to maximum response of WT CaSR", "value": "97 ± 3.4", "unit": "%"}, {"measurement": "EC50", "setting": "Ca^2+ with 1 μM NPS R-568", "value": 2.89, "unit": "mM"}, {"measurement": "pEC50 ± S.E.M.", "setting": "Ca^2+ with 1 μM NPS R-568", "value": "2.54 ± 0.02"}, {"measurement": "Max ± S.E.M.", "setting": "Ca^2+ with 1 μM NPS R-568, normalized to maximum response with Ca^2+ alone for the construct", "value": "99 ± 11", "unit": "%"}, {"measurement": "EC50", "setting": "Ca^2+ with 5 μM NPS 2143", "value": 8.17, "unit": "mM"}, {"measurement": "pEC50 ± S.E.M.", "setting": "Ca^2+ with 5 μM NPS 2143", "value": "2.09 ± 0.004"}, {"measurement": "Max ± S.E.M.", "setting": "Ca^2+ with 5 μM NPS 2143, normalized to maximum response with Ca^2+ alone for the construct", "value": "70 ± 8.1", "unit": "%"}]}
